Measurements published in patent publication US11840686B2, “Modulation of prekallikrein (PKK) expression” (Ionis Pharmaceuticals, Inc., priority 2013, dated 2023).
Strand notation (5' to 3'): a small letter for the sugar, then the base; units joined by * are phosphorothioate-linked, units joined directly phosphodiester-linked; [ ] holds rarer units or linkages, { } end groups; capitals alone tell only the bases. e = 2'-O-(2-methoxyethyl) (MOE); k = constrained ethyl (cEt); [5mC] = 5-methylcytosine; d = 2'-deoxy (DNA)

What follows are substances tested on human PKK mRNA (assay: Antisense inhibition of human PKK mRNA in HepaRG cells, 1,000 nM, MOE/deoxy/cEt oligonucleotides (Example 3)). Conditions: HepaRG cells, 1,000 nM antisense oligonucleotide, Table 29.
Format: cell-based
Experimental: Additional antisense oligonucleotides were designed targeting a PKK nucleic acid and were tested for their effects on PKK mRNA in vitro.
The chimeric antisense oligonucleotides in the tables below were designed as deoxy, MOE and cEt gapmers. The gapmers are 16 nucleosides in length wherein the nucleoside have either a MOE sugar modification, a cEt sugar modification, or a deoxy modification. The ‘Chemistry’ column describes the sugar modifications of each oligonucleotide. ‘k’ indicates an cEt sugar modification; the number indicates the number of deoxynucleosides; otherwise, indicates a deoxynucleoside; and ‘e’ indicates a 2′-O-methoxyethyl modification. The internucleoside linkages throughout each gapmer are phosphorothioate linkages. All cytosine residues throughout each oligonucleotide are 5-methylcytosines. “Start site” indicates the 5′-most nucleoside to which the gapmer is targeted in the human gene sequence. “Stop site” indicates the 3′-most nucleoside to which the gapmer is targeted in the human gene sequence.
Cultured HepaRG™ cells at a density of 20,000 cells per well were transfected using electroporation with 1,000 nM antisense oligonucleotide. After a treatment period of approximately 24 hours, RNA was isolated from the cells and PKK mRNA levels were measured by quantitative real-time PCR. Human primer probe set RTS3454 was used to measure mRNA levels. ISIS 531231 was also included in this assay. PKK mRNA levels were adjusted according to total RNA content, as measured by RIBOGREEN®. The antisense oligonucleotides were tested in a series of experiments that had similar culture conditions. Results are presented as percent inhibition of PKK, relative to untreated control cells.

Substance | % inhibition
548559 (antisense eG*eA*kG*dA*d[5mC]*dT*dG*dA*dA*dG*d[5mC]*d[5mC]*d[5mC]*kT*k[5mC]*eA) [compound 548559] | 44%
548568 (eA*eT*kT*dG*dA*d[5mC]*dA*dA*d[5mC]*d[5mC]*dA*dT*d[5mC]*k[5mC]*kT*eA; antisense) [compound 548568] | 27%
548581 (eG*eG*kT*dG*dG*dG*dT*dT*dA*dT*d[5mC]*dT*dG*kA*kG*eA; antisense) [compound 548581] | 13%
548607 (eT*e[5mC]*kG*dG*dT*dG*dG*dT*dG*dG*dG*dA*dT*kT*kG*eG; antisense) [compound 548607] | 34%
548606 (e[5mC]*eG*kG*dT*dG*dG*dT*dG*dG*dG*dA*dT*dT*kG*kG*eT; antisense) [compound 548606] | 41%
548548 (antisense eG*e[5mC]*kT*dT*dG*dT*dA*dG*dA*dA*dG*dG*dG*kA*kT*eT) [compound 548548] | 54%
548612 (antisense eG*eG*k[5mC]*dG*dG*dG*dA*dT*d[5mC]*dG*dG*dT*dG*kG*kT*eG) [compound 548612] | 20%
548566 (antisense e[5mC]*eA*k[5mC]*dT*d[5mC]*dA*dG*dA*d[5mC]*dT*dG*dT*d[5mC]*kT*kG*eA) [compound 548566] | 0%

Same assay, conditions: HepaRG cells, electroporation with 1,000 nM antisense oligonucleotide, approx. 24 hours, PKK mRNA by RT-PCR (RTS3454), relative to untreated control cells; Table 26 experiment

Substance | % inhibition
548285 (antisense eG*e[5mC]*kT*dT*dA*d[5mC]*dT*dT*dA*d[5mC]*dA*dT*d[5mC]*k[5mC]*k[5mC]*eT) [compound 548285] | 52%
548239 (eT*eA*k[5mC]*dT*d[5mC]*dG*d[5mC]*d[5mC]*dT*dT*dT*dG*dT*kG*kA*e[5mC]; antisense) [compound 548239] | 18%
548254 (antisense e[5mC]*e[5mC]*k[5mC]*dA*dT*dG*d[5mC]*dA*dT*dA*d[5mC]*dT*d[5mC]*kG*k[5mC]*e[5mC]) [compound 548254] | 39%

Same assay, conditions: HepaRG cells, electroporation with 1,000 nM antisense oligonucleotide, approximately 24 hours, primer probe set RTS3454, relative to untreated control cells; experiment of Table 23

Substance | % inhibition
547936 (eG*eA*k[5mC]*dT*d[5mC]*dG*dA*dT*dT*dT*dT*d[5mC]*d[5mC]*kA*kT*eA; antisense) [compound 547936] | 44%
547982 (antisense eA*eA*kT*d[5mC]*dA*dT*d[5mC]*dT*dT*dT*dG*dT*dG*k[5mC]*kA*eA) [compound 547982] | 54%

Same assay, conditions: HepaRG cells, electroporation with 1,000 nM antisense oligonucleotide, approximately 24 hours, primer probe set RTS3454, relative to untreated control cells; experiment of Table 24

Substance | % inhibition
548025 (eT*eG*kA*dG*d[5mC]*dT*dG*dT*d[5mC]*dA*dG*d[5mC]*dT*kT*k[5mC]*eA; antisense) [compound 548025] | 66%
548056 (eG*eT*kG*dT*dA*dA*dT*dT*d[5mC]*dA*dA*dA*dG*kG*kA*eG; antisense) [compound 548056] | 40%
548026 (eG*eT*k[5mC]*d[5mC]*dT*dA*dT*dG*dA*dG*dT*dG*dA*k[5mC]*k[5mC]*e[5mC]; antisense) [compound 548026] | 52%
548012 (eT*e[5mC]*k[5mC]*d[5mC]*d[5mC]*dA*dG*dT*dG*dT*dT*dA*d[5mC]*kA*k[5mC]*eA; antisense) [compound 548012] | 3%
548028 (eG*eG*kT*dG*dT*d[5mC]*d[5mC]*dT*dA*dT*dG*dA*dG*kT*kG*eA; antisense) [compound 548028] | 38%

Same assay, conditions: PKK mRNA, HepaRG cells, 1,000 nM antisense oligonucleotide; Table 31

Substance | % inhibition
548658 (antisense eG*eA*kA*dG*dT*dT*d[5mC]*d[5mC]*dT*dG*dT*dG*dT*k[5mC]*kT*eT) [compound 548658] | 11%
548623 (antisense eG*e[5mC]*kT*dG*dT*d[5mC]*dA*d[5mC]*dT*dT*dA*dA*dG*k[5mC]*k[5mC]*eA) [compound 548623] | 16%
548651 (antisense eA*eG*kT*d[5mC]*dT*d[5mC]*dT*dT*dT*d[5mC]*d[5mC]*dT*dA*k[5mC]*k[5mC]*e[5mC]) [compound 548651] | 61%
548672 (antisense e[5mC]*e[5mC]*k[5mC]*d[5mC]*d[5mC]*d[5mC]*dA*dG*dA*dA*dA*dT*d[5mC]*k[5mC]*k[5mC]*eA) [compound 548672] | 40%
548671 (antisense e[5mC]*eA*kA*d[5mC]*dA*dA*dT*d[5mC]*d[5mC]*dA*dA*dA*dG*k[5mC]*k[5mC]*eT) [compound 548671] | 3%

Same assay, conditions: Table 19; HepaRG cells, electroporation with 1,000 nM antisense oligonucleotide, approximately 24 hours; PKK mRNA by RT-PCR (RTS3454), relative to untreated control cells

Substance | % inhibition
548111 (antisense eG*eA*k[5mC]*dT*dG*d[5mC]*dA*dT*d[5mC]*dT*dG*dA*dG*k[5mC]*kT*eT) [compound 548111] | 53%
548110 (antisense eT*eG*k[5mC]*dA*dT*d[5mC]*dT*dG*dA*dG*d[5mC]*dT*dT*kT*kT*e[5mC]) [compound 548110] | 62%

Same assay, conditions: Table 20; HepaRG cells, electroporation with 1,000 nM antisense oligonucleotide, approximately 24 hours; PKK mRNA by RT-PCR (RTS3454), relative to untreated control cells

Substance | % inhibition
547902 (eA*e[5mC]*kT*dG*dT*dA*d[5mC]*dT*dT*dT*dA*dA*dT*kA*kG*eG; antisense) [compound 547902] | 20%

Same assay, conditions: Table 21 experiment; HepaRG cells, electroporation with 1,000 nM antisense oligonucleotide, approx. 24 hours; PKK mRNA by RT-PCR (RTS3454), relative to untreated control cells

Substance | % inhibition
547822 (eG*e[5mC]*kA*dA*d[5mC]*d[5mC]*dA*dA*dA*d[5mC]*d[5mC]*dT*dT*kT*kT*e[5mC]; antisense) [compound 547822] | 71%

Same assay, conditions: Table 22 experiment; HepaRG cells, electroporation with 1,000 nM antisense oligonucleotide, approx. 24 hours; PKK mRNA by RT-PCR (RTS3454), relative to untreated control cells

Substance | % inhibition
547902 (eA*e[5mC]*kT*dG*dT*dA*d[5mC]*dT*dT*dT*dA*dA*dT*kA*kG*eG; antisense) [compound 547902] | 33%

Same assay, conditions: Table 27; HepaRG cells, 1,000 nM antisense oligonucleotide; human PKK mRNA

Substance | % inhibition
548362 (antisense eG*eA*k[5mC]*dA*dA*d[5mC]*d[5mC]*d[5mC]*dA*dT*d[5mC]*dA*dG*kT*kT*eG) [compound 548362] | 33%
548349 (antisense eT*e[5mC]*k[5mC]*dA*dG*dA*dA*dT*dA*d[5mC]*dT*dG*d[5mC]*k[5mC]*k[5mC]*e[5mC]) [compound 548349] | 61%
548358 (antisense eA*eT*kT*dT*dG*dG*dG*d[5mC]*d[5mC]*dT*dA*dG*dT*kG*kG*eT) [compound 548358] | 0%
548320 (eG*e[5mC]*kA*d[5mC]*dA*d[5mC]*dA*dG*dA*d[5mC]*dT*dT*dG*k[5mC]*k[5mC]*e[5mC]; antisense) [compound 548320] | 0%

Same assay, conditions: Table 28; HepaRG cells, 1,000 nM antisense oligonucleotide; human PKK mRNA

Substance | % inhibition
548519 (antisense e[5mC]*e[5mC]*kT*d[5mC]*d[5mC]*d[5mC]*d[5mC]*dT*dT*dG*dT*dG*dT*kG*kT*e[5mC]) [compound 548519] | 31%
548514 (antisense eT*e[5mC]*kG*dA*dG*dG*dA*d[5mC]*dA*dG*d[5mC]*d[5mC]*d[5mC]*k[5mC]*k[5mC]*eA) [compound 548514] | 40%
548522 (antisense eA*eG*kG*dT*dA*dT*dT*dG*dA*d[5mC]*d[5mC]*dG*d[5mC]*k[5mC]*kA*eG) [compound 548522] | 55%
548496 (antisense eA*e[5mC]*kT*dG*dA*dA*d[5mC]*d[5mC]*d[5mC]*d[5mC]*d[5mC]*dT*dT*kA*kG*eG) [compound 548496] | 0%
548509 (antisense eT*eG*k[5mC]*dA*dG*dG*dG*d[5mC]*dT*dG*d[5mC]*dG*d[5mC]*kA*kG*eT) [compound 548509] | 41%

Same assay, conditions: Table 30; human PKK mRNA, HepaRG cells, 1,000 nM antisense oligonucleotide

Substance | % inhibition
548386 (eA*eG*k[5mC]*d[5mC]*d[5mC]*dT*dG*dT*dT*dT*dG*dG*dT*kT*kT*eT; antisense) [compound 548386] | 0%
548413 (antisense e[5mC]*eT*kA*dA*d[5mC]*dA*dG*dT*dA*dT*d[5mC]*dA*d[5mC]*kT*kG*eT) [compound 548413] | 55%
548446 (antisense eT*e[5mC]*k[5mC]*dT*dA*dT*dG*dT*d[5mC]*dA*d[5mC]*dT*dG*kT*kA*e[5mC]) [compound 548446] | 16%
548456 (eT*eA*kT*dA*dA*d[5mC]*dA*dG*dT*dA*dT*d[5mC]*dA*k[5mC]*k[5mC]*eG; antisense) [compound 548456] | 52%
